Data reported in patent US4152436A, “Acylated pentadienone hydrazone, method for preparing the same, and use as fire ant control agents” (American Cyanamid Company, priority 1978, dated 1979).

Key:
Format in all cases: in vivo
[1] = system: Tobacco Budworm [Heliothis virescens (Fabricius)]; test: Insecticide test, tobacco budworm 1st instar (eggs / newly hatched larvae on dipped cotton leaf); details: 72 h, read-out: % kill, Tobacco Budworm 1st Instar
Experimental: Tobacco Budworm [Heliothis virescens (Fabricius)]
A cotton plant with 2 true leaves expanded is dipped for 3 seconds with agitation in a 300 ppm solution. A 1.25 to 2 cm square of cheesecloth with about 50 to 100 budworm eggs 0-24 hours old is also dipped in the test solution and placed on one leaf to dry. The leaf with the treated budworm eggs is removed from the plant and placed in a 236.6 ml (8-oz) Dixie cup with a wet 5 cm piece of dental wick and covered with a lid. The other leaf is placed in a similar cup with a wick and a piece of cheesecloth infested with 50-100 newly hatched larvae is added before covering the cup with a lid. After 3 days at 26.7° C., observations of egg hatch are made as well as kill of newly hatched larvae, any inhibition of feeding, or interference of any sort with normal development.
(§1) Compounds rated active (8 or 9) are further tested at reduced concentrations in 50% acetone:50% water.

[2] = system: Southern Armyworm [Spodoptera eridania (Cramer)]; test: whole plant or invertebrate; details: for mortality at 10 ppm / mortality at 100 ppm / mortality at 1000 ppm: 48 h, read-out: % kill, Southern Armyworm 3rd Instar; for pest or weed control at 1000 µg/mL: 168 h, second leaf, 7 days from original treatment, read-out: % kill, Southern Armyworm 3rd Instar, 7 days (residual activity)
Experimental: Southern Armyworm [Spodoptera eridania ([…] bean plant with just the primary leaves expanded to 7.6 to 10 cm is dipped for 3 seconds with agitation in a 1000 ppm solution and set in a hood to dry. […] The dish is covered and held at 26.7° C. After 2 days mortality counts and estimates of the amount of feeding are made. Compounds showing partial kill and/or inhibition of feeding are held for an extra day for further observations. All compounds showing activity as defined above are retested, using the second leaf on the bean plant, after an interval of 7 days from original treatment, as an assay of residual activity. Compounds rated active (8 or 9) are further tested at reduced concentrations in 50% acetone:50% water.

[3] = system: Tobacco Budworm [Heliothis virescens (Fabricius)]; test: whole plant or invertebrate; details: 72 h, read-out: % kill, Tobacco Budworm 3rd Instar
Experimental: Third Instar Three cotton plants with just expanded cotyledons are dipped in a 1000 ppm solution, and placed in a hood to dry. When dry, each cotyledon is cut in half and each half is placed in one of ten 29.6 ml plastic medicine cups containing a 1.25 cm dental wick saturated with water, and one third instar budworm larva is added. The cup is capped and held for 3 days at 26.7° C., after which mortality counts are made. Compounds rated active (8 or 9) are further tested at reduced concentrations in 50% acetone:50% water.

[4] = system: Cabbage Looper [Trichoplusia ni (Hubner)]; test: Insecticide test, cabbage looper 3rd instar; details: 48 h, 2 days, 26.7° C., read-out: % kill, Cabbage Looper 3rd Instar
Experimental: Cabbage Looper [Trichoplusia ni (Hubner)]
A primary leaf of a cotton plant is dipped in the test solution and agitated for 3 seconds. It is then set in a hood to dry. Following this, the leaf is placed in a 10 cm petri dish containing a moist filter paper at the bottom and 10 third-instar loopers. The dish is covered and held at 26.7° C. After 2 days, mortality counts and estimates of feeding damage are recorded. Those materials showing partial kill and/or inhibition of feeding are held for another day for further observations.
as §1

SMILES	mortality at 300 ppm [1] [%]	mortality at 10 ppm [2] [%]	mortality at 100 ppm [2] [%]	mortality at 1000 ppm [2] [%]	mortality at 100 ppm [3] [%]	mortality at 1000 ppm [3] [%]	mortality at 10 ppm [4] [%]	mortality at 100 ppm [4] [%]	mortality at 1000 ppm [4] [%]	mortality at 10 ppm [1] [%]	mortality at 100 ppm [1] [%]	pest or weed control at 1000 µg/mL [2] [%]	mortality at 10 ppm [3] [%]
CCCCC(CC)C(=O)N1CC(C)(C)CN=C1NN=C(C=Cc1ccc(C(F)(F)F)cc1)C=Cc1ccc(C(F)(F)F)cc1 (stereo not shown)	0	0	100	100	40	100	80	90	100				
CC1(C)CN=C(NN=C(C=Cc2ccc(C(F)(F)F)cc2)C=Cc2ccc(C(F)(F)F)cc2)N(C(=O)C=Cc2ccccc2)C1	0			0									
CC1(C)CN=C(NN=C(C=Cc2ccc(C(F)(F)F)cc2)C=Cc2ccc(C(F)(F)F)cc2)N(C(=O)c2ccc(C(C)(C)C)cc2)C1	86 to 95	0	90	100	100	100	0	100	100	0 to 40	0 to 40	0	0
CC1(C)CN=C(NN=C(C=Cc2ccc(Cl)cc2)C=Cc2ccc(Cl)cc2)N(C(=O)c2ccccc2)C1		30	100	100	0	100	0	100	100	0 to 40	41 to 60	100	
O=C(c1ccccc1)N1CCCCN=C1NN=C(C=Cc1ccc(C(F)(F)F)cc1)C=Cc1ccc(C(F)(F)F)cc1	0 to 40												
CCCCCCCC(=O)N1CCCCN=C1NN=C(C=Cc1ccc(C(F)(F)F)cc1)C=Cc1ccc(C(F)(F)F)cc1	0 to 40												
CCCCCCCCCCCCCCCC(=O)N1CCCCN=C1NN=C(C=Cc1ccc(C(F)(F)F)cc1)C=Cc1ccc(C(F)(F)F)cc1	0 to 40												
CC(=O)N1CCCCN=C1NN=C(C=Cc1ccc(C(F)(F)F)cc1)C=Cc1ccc(C(F)(F)F)cc1		100	0	100	70	100	0	100	100	0 to 40	41 to 60	100	0
CC(=O)N1CC(C)(C)CN=C1N(N=C(C=Cc1ccc(C(F)(F)F)cc1)C=Cc1ccc(C(F)(F)F)cc1)C(C)=O		0	100	100	0	100	41 to 60	86 to 95	100			0	
CC(C)=CC(=O)N1CC(C)(C)CN=C1NN=C(C=Cc1ccc(C(F)(F)F)cc1)C=Cc1ccc(C(F)(F)F)cc1 [R1=CF3, R3=(CH3)2 CCH]			0	100	0	100		10	100			0	
CC(C)C(=O)N1CC(C)(C)CN=C1NN=C(C=Cc1ccc(C(F)(F)F)cc1)C=Cc1ccc(C(F)(F)F)cc1 [R1=CF3, R3=(CH3)2 CH]	86 to 95	0	100	100	50	100	0	100	100				0
CC(=O)N1CC(C)(C)CN=C1NN=C(C=Cc1ccc(C(F)(F)F)cc1)C=Cc1ccc(C(F)(F)F)cc1 [R1=CF3, R3=CH3, 1,5-bis(α,α,α-Trifluoro-p-tolyl)-1,4-pentadien-3-one, (1-acetyl-1,4,5,6-tetrahydro-5,5-dimethyl-2-pyrimidinyl)hydrazone]	86 to 95	0	100	100	100	100	41 to 60	86 to 95	100		0 to 40	100	40
CCCCC(=O)N1CC(C)(C)CN=C1NN=C(C=Cc1ccc(C(F)(F)F)cc1)C=Cc1ccc(C(F)(F)F)cc1 [R1=CF3, R3=n-C4 H9]	86 to 95	0	100	100	40	100		100	100			100	
CCCCCC(=O)N1CC(C)(C)CN=C1NN=C(C=Cc1ccc(C(F)(F)F)cc1)C=Cc1ccc(C(F)(F)F)cc1 [R1=CF3, R3=n-C5 H11]		0	100	100	70	100	0	50	100				0
CCCCCCCC(=O)N1CC(C)(C)CN=C1NN=C(C=Cc1ccc(C(F)(F)F)cc1)C=Cc1ccc(C(F)(F)F)cc1 [R1=CF3, R3=n-C7 H15]		0	90	100	0	100		90	100				
CCCCCCCCC=CCCCCCCCC(=O)N1CC(C)(C)CN=C1NN=C(C=Cc1ccc(C(F)(F)F)cc1)C=Cc1ccc(C(F)(F)F)cc1 [R1=CF3, R3=n-C8 H17CHCH(CH2)7]		20	100	100	100	100	0	100	100	0 to 40	100	100	0
CCCCCCCCCC(=O)N1CC(C)(C)CN=C1NN=C(C=Cc1ccc(C(F)(F)F)cc1)C=Cc1ccc(C(F)(F)F)cc1 [R1=CF3, R3=n-C9 H19]			0	100	100	100	0	60	100				0
CCCCCCCCCCCC(=O)N1CC(C)(C)CN=C1NN=C(C=Cc1ccc(C(F)(F)F)cc1)C=Cc1ccc(C(F)(F)F)cc1 [R1=CF3, R3=n-C11 H23]		0	100	100	70	100	0	70	100				0
CCCCCCCCCCCCCC(=O)N1CC(C)(C)CN=C1NN=C(C=Cc1ccc(C(F)(F)F)cc1)C=Cc1ccc(C(F)(F)F)cc1 [R1=CF3, R3=n-C13 H27]			0	100	90	100	0	60	100				0
CCCCCCCCCCCCCCCC(=O)N1CC(C)(C)CN=C1NN=C(C=Cc1ccc(Cl)cc1)C=Cc1ccc(Cl)cc1 [R1=Cl, R3=n-C15 H31]			0	100	0	100		0	100			100	
